PubChem BioAssay AID1508612

assay: passive permeability, PAMPA, ADME assay (AID 1508612); settings: pH 7.4, 30.0 min, 50.0 µM

Row | Structure (SMILES) | Papp
1 | CCOC(=O)c1nnc(N[S+](=O)([O-])c2ccc(NC(=O)Cc3ccc(Cl)c(Cl)c3)cc2)s1 | 1.1 ×10⁻⁶ cm/s
2 | O=C([C@H](Cc1ccc(O[S+](=O)([O-])c2cccc3cnccc23)cc1)N[S+](=O)([O-])c1cccc2cnccc12)N1CCN(Cc2ccccc2)CC1 | 399 ×10⁻⁶ cm/s
3 | CC(C)(C#N)c1ccc(N2C(=O)OCc3cnc4ccc(-c5cnc6ccccc6c5)cc4c32)cc1 | 47.5 ×10⁻⁶ cm/s
4 | O=C(Oc1ccc[nH]c1=O)c1cc([N+](=O)[O-])cc([N+](=O)[O-])c1 | 16.2 ×10⁻⁶ cm/s
5 | CCOC(=O)C1=C(C)NC(=O)CC1C(=O)Nc1cc(Cl)cc(Cl)c1 (stereo not given) | 599 ×10⁻⁶ cm/s
6 | COC(=O)[C@@]12OC[C@]34[C@H]([C@@H](O)[C@@H]1O)[C@@]1(C)CC(=O)C(O)=C(C)[C@@H]1C[C@H]3OC(=O)[C@H](OC(=O)/C=C(\C)C(C)C)[C@@H]24 | 120 ×10⁻⁶ cm/s
7 | Cc1ccc2[nH]c(-c3ccccc3)cc(=O)c2c1 | 74.9 ×10⁻⁶ cm/s
8 | CC(=O)Nc1ncc(S(=O)(=O)Nc2cnccc2C(=O)Nc2nc(-c3ccccc3)cs2)s1 | 21.4 ×10⁻⁶ cm/s
9 | Cc1ccc(CNCc2cn[nH]c2-c2ccc(C)cc2)cc1 | > 1000 ×10⁻⁶ cm/s
10 | CCC(CC)c1cc([C@H]2CN3CC[C@H]2C[C@@H]3CNS(=O)(=O)c2cccs2)nc(-c2ccncc2)n1 | > 1000 ×10⁻⁶ cm/s
11 | CS(=O)(=O)c1ccc(-c2cnc(NCc3ccco3)n3cnnc23)cc1 | 16.7 ×10⁻⁶ cm/s
12 | COc1ccccc1-c1nc(NCc2ccc(-c3cccnc3)cc2)c2ccccc2n1 | 980 ×10⁻⁶ cm/s
13 | COc1cc([C@@H]2c3cc4c(cc3[C@H](O)[C@H]3COC(=O)[C@H]23)OCO4)cc(OC)c1OC | 224 ×10⁻⁶ cm/s
14 | COc1ccc(-c2nc3ncccc3[nH]2)cc1 | 139 ×10⁻⁶ cm/s
15 | O=S(=O)(Nc1nc2n(n1)C(c1ccccc1)C=C(c1ccc(Cl)cc1)N2)c1ccccc1 (stereo not given) | 9.09 ×10⁻⁶ cm/s
16 | FC(F)(F)c1cc(-c2ccc(CNc3nc(-c4ccccc4C(F)(F)F)nc4ccsc34)cc2)ccn1 | 455 ×10⁻⁶ cm/s
17 | NC[C@H](O)c1ccc(O)c(O)c1 | 5.7 ×10⁻⁶ cm/s
18 | COc1ccc(-c2nc(-c3c(C)noc3C)cc3c2cc(C)n3CCN(C)C)cc1OC | > 1000 ×10⁻⁶ cm/s
19 | O=C1Nc2ccccc2C12CC2c1cc(Cl)c(O)c(Cl)c1 (stereo not given) | 278 ×10⁻⁶ cm/s
20 | Cc1ccc(S(=O)(=O)Nc2ccccc2C(=O)Nc2nc(-c3ccccc3)co2)cc1 | 358 ×10⁻⁶ cm/s
21 | O=C1Nc2ccccc2/C1=C\c1ccc(O)cc1 | 755 ×10⁻⁶ cm/s
22 | COc1ccccc1NS(=O)(=O)c1cccc(NC(=O)c2[nH]c(C)c(C(C)=O)c2C)c1 | 197 ×10⁻⁶ cm/s
23 | O=C1CCCC2=C1C(c1[nH]ncc1Cl)N=C(Nc1nc3c(Cl)cccc3o1)N2 (stereo not given) | 162 ×10⁻⁶ cm/s
24 | COc1cccc(-c2csc(NC(=O)c3ccncc3NS(=O)(=O)c3ccc(C)cc3)n2)c1 | > 1000 ×10⁻⁶ cm/s
25 | C=C1[C@@H](C)C2[C@H](Cc3ccccc3)NC(=O)[C@@]23C(/C=C/C[C@H](C)C[C@@](C)(O)/C=C/[C@@H]3OC(C)=O)[C@@H]1O (stereo not given in full) | 50 ×10⁻⁶ cm/s
26 | CCOC(=O)c1csc(NC(=O)c2ccncc2NS(=O)(=O)c2ccc(C)cc2)n1 | 114 ×10⁻⁶ cm/s

Row | Structure (SMILES) | Papp
27 | Cc1ccc(S(=O)(=O)Nc2ccc(OC(F)(F)F)cc2C(=O)Nc2nc(-c3ccccc3)cs2)cc1 | 1.6 ×10⁻⁶ cm/s
28 | NC(=O)c1cccc(-c2cc(Nc3ccc(OC(F)(F)F)cc3)ncn2)c1 | 579 ×10⁻⁶ cm/s
29 | Cc1nc(NCc2ccco2)nc2c1C(=O)CC(C)C2 (stereo not given) | > 1000 ×10⁻⁶ cm/s
30 | Cc1cc(C)c2nc(-c3ccccn3)cc(C(=O)Nc3ccc(S(=O)(=O)Nc4onc(C)c4C)cc3)c2c1 | 240 ×10⁻⁶ cm/s
31 | Cc1ccc(S(=O)(=O)Nc2ccccc2C(=O)Nc2ncc(-c3ccccc3)o2)cc1 | 303 ×10⁻⁶ cm/s
32 | CSc1ccc(/C=C/c2nc3ccccc3n2S(=O)(=O)c2cccc(Cl)c2)cc1 | 911 ×10⁻⁶ cm/s
33 | FC(F)(F)c1ccccc1-c1nc(NCc2ccc(-c3cccnc3)cc2)c2ccccc2n1 | 786 ×10⁻⁶ cm/s
34 | COc1ccc(C2Nc3ccccc3C(=O)N2Cc2ccco2)cc1 (stereo not given) | 799 ×10⁻⁶ cm/s
35 | O=C1Nc2ccc(Cl)cc2/C1=C\c1cc(Cl)c(O)c(Cl)c1 | 69.5 ×10⁻⁶ cm/s
36 | Cc1ccc(C(=O)Nc2cccc(C(F)(F)F)c2)cc1Nc1nc(-c2cccnc2)nc2c1cnn2C | 283 ×10⁻⁶ cm/s
37 | O=C(NC(c1ccccc1)c1cc(Cl)c2cccnc2c1O)c1cccnc1 (stereo not given) | 51.6 ×10⁻⁶ cm/s
38 | CCS(=O)(=O)N1CC(CC#N)(n2cc(-c3ncnc4[nH]ccc34)cn2)C1 | 11.1 ×10⁻⁶ cm/s
39 | COc1cccc(CNc2ccc(S(=O)(=O)Nc3nc(C)cs3)cc2)c1O | 128 ×10⁻⁶ cm/s
40 | CNC(=O)Cn1cc(-c2ccc3c(c2)C(F)CC32NC(=O)N(CC(=O)N(Cc3ccc(F)cc3)[C@@H](C)C(F)(F)F)C2=O)cn1 (stereo not given in full) | 115 ×10⁻⁶ cm/s
41 | COc1cccc(CNc2ccc(S(=O)(=O)Nc3cccc4ccccc34)cc2)c1O | < 1 ×10⁻⁶ cm/s
42 | O=C(Nc1nc(-c2ccccc2)cs1)c1ccncc1NS(=O)(=O)c1cccs1 | 83.2 ×10⁻⁶ cm/s
43 | CN(C)CCN1C(=O)c2cccc3cc(N)cc(c23)C1=O | 339 ×10⁻⁶ cm/s
44 | O=C(O)Cc1ccc2oc(-c3ccc(NC(=O)/C=C/c4ccc(Br)cc4)c(F)c3)nc2c1 | 6.63 ×10⁻⁶ cm/s
45 | Fc1ccc(-c2ccc(Nc3nc(-c4ccncc4)nc4ccccc34)cc2F)c(Cl)c1 | 20.9 ×10⁻⁶ cm/s
46 | COc1cc(-c2nc(-c3c(C)noc3C)cc3c2cc(C)n3CCN(C)C)ccn1 | > 1000 ×10⁻⁶ cm/s
47 | Cc1ccc(NC2=C(c3ccc(C(F)(F)F)cc3)C(=O)c3ccccc32)cc1F | < 1 ×10⁻⁶ cm/s
48 | COc1ccc(NC(=O)c2c(C)cccc2C)cc1[S+](=O)([O-])N(C)C | 196 ×10⁻⁶ cm/s
49 | O=C(Nc1nc(-c2ccccc2)cs1)c1ccncc1NS(=O)(=O)c1ccc2c(c1)CCC2 | > 1000 ×10⁻⁶ cm/s
50 | Cc1cccc2nc(-c3ccccn3)c(Nc3ccc(F)cc3)n12 | > 1000 ×10⁻⁶ cm/s
51 | O=C(Nc1ccc(Cl)c(S(=O)(=O)N2CCOCC2)c1)c1ccccc1 | 728 ×10⁻⁶ cm/s
52 | CSc1nc(N)cc(Oc2ccc(-c3nc(Nc4cccc(C(F)(F)F)c4)n[nH]3)cc2)n1 | 633 ×10⁻⁶ cm/s

Next, values leading:

Row | Papp | Structure (SMILES)
53 | < 1 ×10⁻⁶ cm/s | NC(=O)C1CCN(c2nc(-c3ccc(OCc4ccccc4)cc3)cs2)CC1
54 | > 1000 ×10⁻⁶ cm/s | Cc1cc(-c2ccc(C)c(S(=O)(=O)NCC3CCN(Cc4ccc(F)cc4)CC3)c2)on1
55 | > 1000 ×10⁻⁶ cm/s | Cc1ccc(C)c(CN2CCC(CNC(=O)Nc3ccc(Br)cc3F)CC2)c1
56 | > 1000 ×10⁻⁶ cm/s | CCOc1ccc(CCNC(=O)c2cc3sccc3n2Cc2ccccn2)cc1OCC
57 | > 1000 ×10⁻⁶ cm/s | CCN(CC)C(=O)N1c2ccccc2C=Cc2ccccc21
58 | 478 ×10⁻⁶ cm/s | Cc1ccc(S(=O)(=O)Nc2ccccc2C(=O)Nc2nccs2)cc1
59 | 491 ×10⁻⁶ cm/s | CC(C)Oc1ccc(C(=O)Nc2ccc3c(c2)CCCN3C(=O)c2cccs2)cc1
60 | 427 ×10⁻⁶ cm/s | CCCN1C(CC(C)C)=NS(=O)(=O)c2cc(NC(=O)c3ccco3)ccc21
61 | 449 ×10⁻⁶ cm/s | Cc1noc(C)c1C(=O)N1CCC2(CCCN(Cc3ccccc3)C2)CC1
62 | 394 ×10⁻⁶ cm/s | COc1ccc(CCNC(=O)c2cc3c(=O)n4ccccc4nc3n(CCCN3CCOCC3)c2=N)cc1
63 | 257 ×10⁻⁶ cm/s | Cc1ccccc1C(=O)Nc1nc2c(s1)CC(C(C)(C)C)CC2 (stereo not given)
64 | 56.5 ×10⁻⁶ cm/s | C[C@@H]1CC(=O)Nc2cccc(-c3cnn(C(C)(C)C)c3)c2N1
65 | < 1 ×10⁻⁶ cm/s | O=C(Nc1ccc(N2CCC(N3CCCCC3)CC2)c(C(=O)O)c1)c1ccc(Br)cc1
66 | > 1000 ×10⁻⁶ cm/s | CCN1CCN(CCCOc2ccc(-c3ccccc3)cc2)CC1
67 | > 1000 ×10⁻⁶ cm/s | CCCc1cc(C)[nH]c(=O)c1CNC(=O)c1cc(-c2ccc(N3CCN(C(C)C)CC3)nc2)cc2c1cnn2C(C)C
68 | 48.4 ×10⁻⁶ cm/s | CC(C)COc1ccc(-c2csc(N3CCC(C(N)=O)CC3)n2)cc1
69 | 714 ×10⁻⁶ cm/s | CC(=O)N1CCc2c(sc3c2c(=O)n(-c2ccccc2)c(=O)n3CC(=O)c2ccccc2)C1
70 | > 1000 ×10⁻⁶ cm/s | NC(=O)C1CCN(c2nc(-c3ccc4c(c3)CCO4)cs2)CC1
71 | > 1000 ×10⁻⁶ cm/s | Oc1ccc(-c2nc(C3CC3)nc3c2CCN(Cc2ccc(F)cc2)CC3)cc1
72 | 272 ×10⁻⁶ cm/s | N#Cc1ccc(N2N=C3c4ccc(C(=O)O)cc4CC[C@@H]3[C@@H]2C2CCCC2)cc1Cl
73 | 138 ×10⁻⁶ cm/s | CCCN1CNc2c(c(=O)[nH]c(=S)n2CCc2ccc(OC)c(OC)c2)C1
74 | 11.6 ×10⁻⁶ cm/s | CC(=O)c1c(C)[nH]c(C(=O)Nc2cccc([S+](=O)([O-])Nc3ccccn3)c2)c1C
75 | 189 ×10⁻⁶ cm/s | COc1cc(C(=O)NC2CCCc3c2[nH]c2ccccc32)cc(OC)c1OC (stereo not given)
76 | 3.88 ×10⁻⁶ cm/s | CN1CCN(c2ccc(-c3cccc(CN4CCOCC4)c3)cc2NC(=O)c2c[nH]c(=O)cc2C(F)(F)F)CC1

Row | Papp | Structure (SMILES)
77 | > 1000 ×10⁻⁶ cm/s | Cn1cc(Br)c(C2N=C(Nc3nc4ccccc4o3)NC3=C2C(=O)CCC3)n1 (stereo not given)
78 | 403 ×10⁻⁶ cm/s | COc1ccc(-n2nc(C3CCN([S+](=O)([O-])c4c(C)noc4C)CC3)[nH]c2=O)cc1
79 | > 1000 ×10⁻⁶ cm/s | COc1ccc(-n2c(C)c(C(C)=O)c3ccccc32)cc1
80 | > 1000 ×10⁻⁶ cm/s | COc1ccccc1N1CCN(c2ccc3cc(S(=O)(=O)N4CCCCC4)ccc3n2)CC1
81 | > 1000 ×10⁻⁶ cm/s | Cc1cc(-c2nnc3n2CCCCC3)c(C)n1-c1cccc(Cl)c1
82 | 119 ×10⁻⁶ cm/s | CN(C)c1cccc(-c2nnc(N3CCC(C(N)=O)CC3)s2)c1
83 | 4.69 ×10⁻⁶ cm/s | O=C(Nc1ccc(S(=O)(=O)Nc2nccs2)cc1)c1ccc2ccccc2c1
84 | 615 ×10⁻⁶ cm/s | CCN(c1ccccc1)S(=O)(=O)c1c(C)nc2scc(C)n2c1=O
85 | > 1000 ×10⁻⁶ cm/s | Cc1ccc(C)c(CN2C(=O)c3ccccc3S(=O)c3ccc(C(=O)N4CCN(c5ccccc5F)CC4)cc32)c1 (stereo not given)
86 | 96.6 ×10⁻⁶ cm/s | CCOc1cc(=O)n2c(c1C(=O)Nc1cc(OC)c(Cl)cc1OC)CCCC2
87 | 244 ×10⁻⁶ cm/s | CN(C)c1cccc(-c2ncnc(N3CCC(C(N)=O)CC3)n2)c1
88 | > 1000 ×10⁻⁶ cm/s | Cc1ccnc(NC(=S)N2CC[C@@H](Nc3cccc(C(F)(F)F)c3)C2)c1
89 | 242 ×10⁻⁶ cm/s | COc1ccc(-n2nc(C3CCN([S+](=O)([O-])c4cccc(C(F)(F)F)c4)CC3)[nH]c2=O)cc1
90 | 239 ×10⁻⁶ cm/s | CC(=O)c1cccc(-c2csc3ncnc(Sc4nnnn4C)c23)c1
91 | 106 ×10⁻⁶ cm/s | CC(C)(C)n1cnc2cc(C(=O)N3CCCCC3)ccc21
92 | 396 ×10⁻⁶ cm/s | CCN(CC)S(=O)(=O)c1ccc(N2CCCC2)c(NS(=O)(=O)c2ccccc2)c1
93 | 827 ×10⁻⁶ cm/s | Cc1cccc(C)c1C(=O)Nc1cccc([S+](=O)([O-])N2CCCCCC2)c1
94 | 297 ×10⁻⁶ cm/s | CCOc1ccc(N2CC(c3nc(-c4ccccn4)no3)CC2=O)cc1 (stereo not given)
95 | > 1000 ×10⁻⁶ cm/s | CCN(CC)CCCCNc1ncc2cc(-c3c(Cl)cccc3Cl)c(NC(=O)NC(C)(C)C)nc2n1
96 | 440 ×10⁻⁶ cm/s | COc1c(Cl)cc2c([nH]c3cnccc32)c1NC(=O)c1cccnc1C
97 | 305 ×10⁻⁶ cm/s | Cn1cc(S(=O)(=O)N2CCCCCC2)cc1C(=O)Nc1ccc(Cl)c(C(F)(F)F)c1
98 | > 1000 ×10⁻⁶ cm/s | CCC[C@@H]1CN(C(=O)c2ccc(-c3ccc(C)o3)cc2)C[C@H]1NC(C)=O
99 | 651 ×10⁻⁶ cm/s | Cc1csc2nc(-c3cccc(NC(=O)c4ccccc4Cl)c3)cn12
100 | > 1000 ×10⁻⁶ cm/s | CN1CCN(c2cc(-c3nc(Nc4ccc(F)c(F)c4)c4ccccc4n3)ccn2)CC1
